The assay is described as follows: Inhibition of yeast alpha-glucosidase by colorimetric method. Also noted: species or system Saccharomyces cerevisiae.

SMILES strings stand for the structures.

The term IC50 denotes the midpoint of a concentration-inhibition curve. The low end stands for higher potency, the high end for lower potency. `OCc1cc(Br)c(O)c(Oc2c(CO)cc(Br)c(O)c2O)c1Br` displayed an IC50 of 25 µM. The compound `Oc1cc(COCc2cc(O)c(O)c(Br)c2Br)c(Br)c(Br)c1O` showed an IC50 of 0.098 µM. In turn, `OCc1cc(O)c(O)c(Br)c1Br` [LANOSOL] gave a half-inhibitory concentration (IC50) of 89 µM.

The values are drawn from ChEMBL document CHEMBL1144054, “Two new bromophenols from the red alga odonthalia corymbifera” (J Nat Prod, 1999).
